Some test systems named below: SK-MEL-5 melanoma; DU-145 prostate; T-47D breast; NCI-H460 lung; SK-MEL-2 melanoma; 786-0 renal; SW-620 colon; OVCAR-5 ovarian; UO-31 renal; MDA-N; SN12C renal; HT29 colon; SNB-75 CNS; UACC-257 melanoma; U251 CNS; SF-295 CNS; SR leukemia.
Common to all, as to experiment: inhibition of tumour cell growth, NCI panel, 48 h

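Following 48 hours of exposure in 96-well plates, responses at five concentrations were used to interpolate endpoints linearly. TGI: total growth inhibition.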

Consider `O=C1CSC(c2c[nH]c3ccccc23)N1c1cccc(Cl)c1` (configuration not stated), for which the TGI in the test with SK-MEL-5 melanoma is over 100 µM; with DU-145 prostate, over 100 µM; in the test on T-47D breast, over 100 µM; in the test on NCI-H460 lung it was over 100 µM; in the test on SK-MEL-2 melanoma, 65.2 µM; in the test on 786-0 renal it was 47.1 µM. In addition, the TGI in the test with SW-620 colon, in the test with OVCAR-5 ovarian, in the test on UO-31 renal, in the test with MDA-N, with SN12C renal and in the test on HT29 colon was over 100 µM each time. The TGI in the test with SNB-75 CNS, in the test on UACC-257 melanoma, with U251 CNS and with SF-295 CNS was over 100 µM throughout.

For `CN1CCN(Cn2nc(COc3ccccc3Cl)n(/N=C/c3ccc(-c4ccc(Cl)cc4Cl)o3)c2=S)CC1`, the TGI with SK-MEL-5 melanoma is 71.8 µM; in the test on DU-145 prostate, 38.3 µM; with T-47D breast, 55 µM; in the test on NCI-H460 lung, 51.6 µM; in the test with SK-MEL-2 melanoma it was 45.4 µM; with 786-0 renal, 32.8 µM. Moreover, the TGI in the test with SW-620 colon was 34.6 µM; with OVCAR-5 ovarian it was over 100 µM; with UO-31 renal, over 100 µM; in the test on MDA-N, 53.8 µM; with HT29 colon, 42.9 µM; in the test with UACC-257 melanoma, over 100 µM. Besides, the TGI in the test on U251 CNS turned out to be 34.6 µM; with SR leukemia, 51.8 µM; with SF-295 CNS, 87.3 µM.

In the case of `COC(=NC(C)C)NC(C)C`, the TGI in the test with SK-MEL-5 melanoma, in the test with DU-145 prostate, in the test with T-47D breast, in the test with NCI-H460 lung, in the test with SK-MEL-2 melanoma and in the test with 786-0 renal was over 100 µM throughout. Moreover, the TGI in the test on SW-620 colon, in the test on OVCAR-5 ovarian, in the test with UO-31 renal, in the test on MDA-N, in the test with SN12C renal and with SNB-75 CNS was over 100 µM each time. In addition, the TGI in the test on U251 CNS and in the test on SR leukemia was over 100 µM in each case.

Take `COc1cc(CN=c2nc(N(C)C)ss2)cc(OC)c1OC`: the TGI was over 10 µM in the test on SK-MEL-5 melanoma; over 10 µM with DU-145 prostate; over 10 µM in the test on T-47D breast; over 10 µM in the test with NCI-H460 lung; over 5.44 µM in the test with 786-0 renal; over 10 µM with SW-620 colon. Besides, the TGI in the test with OVCAR-5 ovarian, in the test on UO-31 renal, in the test with MDA-N, in the test with SN12C renal, in the test on HT29 colon and in the test on SNB-75 CNS was over 10 µM in each case. Further, the TGI in the test on UACC-257 melanoma is over 10 µM; with U251 CNS it was over 10 µM; with SR leukemia, 3.38 µM; in the test on SF-295 CNS it was over 10 µM.

With `O=C1c2ccccc2-c2nnc3c(c21)Cc1ccccc1C3`, the TGI in the test with SK-MEL-5 melanoma, in the test with DU-145 prostate, in the test on T-47D breast, in the test with NCI-H460 lung, with SK-MEL-2 melanoma and in the test with 786-0 renal was over 10 µM each time. Moreover, the TGI with SW-620 colon, with OVCAR-5 ovarian, in the test with UO-31 renal, in the test on MDA-N, in the test with SN12C renal and in the test on HT29 colon was over 10 µM in each case. For the same compound, the TGI in the test with SNB-75 CNS, in the test on U251 CNS, in the test with SR leukemia and in the test with SF-295 CNS was over 10 µM in each case.

For `COc1ccc(/C=C/C(=O)c2cc(OC)cc(OC)c2)cc1`, the TGI was found to be 24.2 µM with SK-MEL-5 melanoma; 10.8 µM in the test with DU-145 prostate; 11.9 µM with T-47D breast; 14.4 µM in the test with NCI-H460 lung; 42.3 µM in the test with SK-MEL-2 melanoma; 11.2 µM in the test with 786-0 renal. Further, the TGI in the test on SW-620 colon is 17.6 µM; in the test with OVCAR-5 ovarian, 18.1 µM; with UO-31 renal, 12.4 µM; in the test on MDA-N, 5.33 µM; with SN12C renal, 13.5 µM; in the test on HT29 colon it was 4.96 µM. For the same compound, the TGI with SNB-75 CNS came out at 8.19 µM; in the test on UACC-257 melanoma it was 26.9 µM; in the test with U251 CNS, 7.41 µM; in the test on SF-295 CNS, 7.23 µM.

As to `N=c1sc2ccccc2n1CCS` (tested in a mixture with another compound), the TGI with SK-MEL-5 melanoma was 28 µM; in the test on DU-145 prostate, 46 µM; in the test on T-47D breast, over 100 µM; with NCI-H460 lung it was 27.5 µM; with SK-MEL-2 melanoma it was 45.5 µM; in the test on 786-0 renal it was 35.8 µM. The TGI in the test on SW-620 colon is over 100 µM; in the test on OVCAR-5 ovarian, 57.3 µM; in the test on UO-31 renal it was 25.8 µM; with MDA-N, over 100 µM; in the test on SN12C renal, 59.4 µM; in the test with HT29 colon, 37.1 µM. In addition, the TGI in the test with SNB-75 CNS was over 100 µM; in the test on UACC-257 melanoma it was 45.8 µM; in the test on U251 CNS, 29.1 µM; in the test with SF-295 CNS it was 42 µM.

Regarding `O=C(O)C(Cc1cc(I)c(O)c(I)c1)C1CCCCC1` (configuration not stated), the TGI was 53.5 µM with SK-MEL-5 melanoma; over 100 µM with DU-145 prostate; over 100 µM with T-47D breast; 46 µM in the test on NCI-H460 lung; over 100 µM in the test on 786-0 renal; over 100 µM in the test on SW-620 colon. Besides, the TGI in the test with OVCAR-5 ovarian is over 100 µM; in the test on UO-31 renal, over 100 µM; in the test on MDA-N, over 100 µM; in the test on SN12C renal it was over 100 µM; in the test with HT29 colon, 98.3 µM; with SNB-75 CNS it was over 100 µM. The TGI is over 100 µM in the test with UACC-257 melanoma, 54.6 µM with U251 CNS, over 100 µM with SR leukemia and over 100 µM with SF-295 CNS.

Consider `CCC(C)N1CN(c2ccccc2)C2(CCN(CC3COc4ccccc4O3)CC2)C1=O` (configuration not stated), for which the TGI in the test on SK-MEL-5 melanoma was 28.9 µM; in the test on DU-145 prostate, 59.8 µM; in the test with T-47D breast, 51.3 µM; in the test with 786-0 renal, 35.5 µM; with SW-620 colon, 58.8 µM; in the test on UO-31 renal, 30.2 µM. Besides, the TGI in the test on MDA-N is 64.1 µM; in the test on SN12C renal, 84.2 µM; in the test on HT29 colon, 40.3 µM; in the test with SNB-75 CNS it was over 100 µM; in the test on UACC-257 melanoma it was 65.9 µM; with U251 CNS, 38.7 µM. In addition, the TGI with SR leukemia came to 76 µM; with SF-295 CNS it was 39.1 µM.

As to `C=CCN1C(=O)CC2[C@@H]3CCc4cc(O)ccc4C3CC[C@]2(C)C1=O` (some centres not stated), the TGI in the test on SK-MEL-5 melanoma, in the test with DU-145 prostate, in the test on T-47D breast, with NCI-H460 lung, in the test with SK-MEL-2 melanoma and with 786-0 renal was over 10 µM in each case. For the same compound, the TGI with SW-620 colon, with OVCAR-5 ovarian, in the test on UO-31 renal, in the test on MDA-N, in the test with SN12C renal and with HT29 colon was over 10 µM throughout. The TGI in the test with UACC-257 melanoma, in the test with U251 CNS, with SR leukemia and with SF-295 CNS was over 10 µM in each case.

Take `CCOC(=O)c1nc2ccccc2nc1Oc1cc(OC)cc(OC)c1`: the TGI with SK-MEL-5 melanoma, in the test with DU-145 prostate, in the test on T-47D breast, in the test on NCI-H460 lung, in the test on SK-MEL-2 melanoma and in the test with 786-0 renal was over 100 µM each time. For the same compound, the TGI in the test on SW-620 colon, in the test on OVCAR-5 ovarian, in the test with UO-31 renal, in the test on MDA-N, in the test with SN12C renal and in the test on HT29 colon was over 100 µM in each case. Further, the TGI with UACC-257 melanoma, in the test on U251 CNS, with SR leukemia and in the test with SF-295 CNS was over 100 µM in each case.

Turning to `O=C1CSCC(=O)Nc2ccccc2N1`, the TGI in the test with SK-MEL-5 melanoma, in the test with DU-145 prostate, with T-47D breast, in the test on NCI-H460 lung, in the test with SK-MEL-2 melanoma and in the test with 786-0 renal was over 100 µM throughout. Besides, the TGI in the test with SW-620 colon, with OVCAR-5 ovarian, in the test on UO-31 renal, in the test on MDA-N, with SN12C renal and with HT29 colon was over 100 µM in each case. Also, the TGI in the test with UACC-257 melanoma, in the test on U251 CNS, in the test with SR leukemia and in the test with SF-295 CNS was over 100 µM in each case.

For the compound `CC(CN1NC12CCCC2)N1NC12CCCC2` (configuration not stated), the TGI with SK-MEL-5 melanoma, in the test on DU-145 prostate, with T-47D breast, with NCI-H460 lung, in the test on SK-MEL-2 melanoma and in the test on 786-0 renal was over 100 µM in each case. Moreover, the TGI in the test on SW-620 colon, with OVCAR-5 ovarian, in the test on UO-31 renal, in the test with MDA-N, in the test on SN12C renal and with HT29 colon was over 100 µM each time. Further, the TGI with SNB-75 CNS, in the test on UACC-257 melanoma, with U251 CNS and in the test with SF-295 CNS was over 100 µM each time.

In the case of `CCNC1=C(NC(=O)c2ccc(F)cc2)C(=O)c2ccccc2C1=O`, the TGI in the test with SK-MEL-5 melanoma, in the test with DU-145 prostate, in the test on T-47D breast, in the test on NCI-H460 lung, with 786-0 renal and in the test on SW-620 colon was over 100 µM throughout. The TGI in the test with OVCAR-5 ovarian is over 100 µM; in the test on MDA-N, over 100 µM; in the test on SN12C renal, over 100 µM; with HT29 colon it was 53.6 µM; with SNB-75 CNS, over 100 µM; with UACC-257 melanoma, 46.9 µM. The TGI with SR leukemia and in the test with SF-295 CNS was over 100 µM throughout.

The values are drawn from PubChem BioAssay (NCI).
